One test deals with Cryptococcus neoformans. Description: Antifungal susceptibility testing, modified CLSI method. The class given is cell-based.
The test system of a further test is A. fumigatus. The test is described as above. The test is classed as cell-based. The settings on record: Aspergillus fumigatus.
The test system of test [1] is L. donovani promastigotes. The test can be described thus: Antileishmanial activity, Alamar Blue assay. The note with it: for IC50 / IC90: Leishmania donovani; for IC50: read-out: Antileishmanial L. donovani IC50; for IC90: read-out: Antileishmanial L. donovani IC90; for Antileishmanial L. donovani IC50 / Antileishmanial L. donovani IC90: promastigotes; for Antileishmanial L. donovani IC90: 90% inhibition of leishmanial growth. The test is classed as cell-based, Leishmania donovani. A general note: The colour change of resazurin is a common sign of viable cells or microbes.

For test [2], the system named is P. falciparum chloroquine sensitive (D6) clone. Description: In vitro antimalarial activity, plasmodial LDH activity. The test is classed as cell-based, Plasmodium falciparum. The note with it: for IC50: Plasmodium falciparum, D6, read-out: Antimalarial P. falciparum D6 Clone IC50.
The test system of test [3] is P. falciparum chloroquine resistant (W2) clone. Description: microbe, parasite or virus in culture. The class given is cell-based, Plasmodium falciparum. The note with it: for IC50: Plasmodium falciparum, W2, read-out: Antimalarial P. falciparum W2 Clone IC50.
Test [4] deals with Mycobacterium intracellulare. The test can be described thus: Susceptibility by modified Alamar Blue procedure. The class given is cell-based.
The test system of the next test is Staphylococcus aureus. The test can be described thus: Antibacterial susceptibility testing, modified CLSI method. The test is classed as cell-based. The note with it: for IC50 Antibacterial S. aureus: 50% inhibition of bacterial growth; for IC50 against S. aureus and methicillin resistant S. aureus: range over both compounds and both strains (abstract).
For test [5], the system named is methicillin resistant S. aureus (MRS). Described as above. The class given is cell-based, Staphylococcus aureus. The note with it: for IC50 Antibacterial MRS: 50% inhibition of bacterial growth.
A further test has as its system C. glabrata. The test can be described thus: Antifungal susceptibility testing, modified CLSI method. The note with it: 50% inhibition of fungal growth. The class given is cell-based, Candida glabrata.
In test [6] the test system is BSL-1 and 2 model organisms (fungi, bacteria, P. falciparum, L. donovani). The test can be described thus: Overall in vitro antimicrobial and antiprotozoal screen. The class given is cell-based. The note with it: for Activity against all other test organisms: fungi and bacteria other than S. aureus and MRS; for Antimicrobial or antiprotozoal activity (overall): all test organisms.

The mark [7] stands for this setting: lowest concentration that allows no detectable growth.

≈ marks a conversion by molar mass, not a printed value. Where “and” joins values, the source holds several entries; their conditions need not be identical. Equal values may be shown once.

This note sets out measurements from paper PMC3058569 (Chemical biology & drug design, 2010).

By MIC is commonly meant the lowest concentration found to suppress growth. As a reminder, the IC50 is the point on the concentration scale where inhibition reaches its midpoint. As a reminder, the IC90 is the concentration needed for an effect of 90%.

`C[C@@H]1[C@H](O)[C@@H](C)/C=C/C=C/C=C/C=C/C=C/C=C/C=C/[C@H](O[C@@H]2O[C@H](C)[C@@H](O)[C@H](N)[C@@H]2O)C[C@@H]2O[C@](O)(C[C@@H](O)C[C@@H](O)[C@H](O)CC[C@@H](O)C[C@@H](O)CC(=O)O[C@H]1C)C[C@H](O)[C@H]2C(=O)O` [Amphotericin B]: the “IC50 Antifungal C. neoformans” value with Cryptococcus neoformans (50% inhibition of fungal growth) was 1.28 µg/mL (≈ 1.39 µM). Moreover, the MIC in the test with Cryptococcus neoformans (Cryptococcus neoformans, read-out: MIC Antifungal C. neoformans) is 2.5 µg/mL (≈ 2.71 µM); with A. fumigatus (read-out: MIC Antifungal A. fumigatus), 2.5 µg/mL (≈ 2.71 µM). The IC50 in the test on A. fumigatus (read-out: IC50 Antifungal A. fumigatus) was found to be 0.98 µg/mL (≈ 1.06 µM); in test [1] it was 0.2 µg/mL (≈ 0.216 µM). For the same molecule, the 90% effect concentration (IC90) in [1] is 0.4 µg/mL (≈ 0.433 µM).
For the molecule `C[C@@H]1CC[C@H]2[C@@H](C)C(=O)O[C@@H]3O[C@@]4(C)CC[C@@H]1[C@]32OO4` [Artemisinin], the IC50 came out at 0.01 µg/mL (≈ 0.0354 µM) in test [2] and 0.0065 µg/mL (≈ 0.023 µM) in test [3].
In the same order, the values of `CCN(CC)CCCC(C)Nc1ccnc2cc(Cl)ccc12` (stereo not shown) [Chloroquine] are 0.015 µg/mL (≈ 0.0469 µM) and 0.12 µg/mL (≈ 0.375 µM).
In the case of `O=C(O)c1cn(C2CC2)c2cc(N3CCNCC3)c(F)cc2c1=O` [Ciprofloxacin], the half-maximal inhibitory concentration (IC50) in test [4] (Mycobacterium intracellulare, read-out: IC50 Antibacterial M. intracellulare) is 0.39 µg/mL (≈ 1.18 µM). The minimal inhibitory concentration (MIC) in test [4] (Mycobacterium intracellulare, read-out: MIC Antibacterial M. intracellulare) stood at 0.5 µg/mL (≈ 1.51 µM).
`NC(=O)c1cc[n+](CCCBr)cc1.[Br-]` [Compound 17]: the “Antimalarial P. falciparum D6 Clone IC50” value in test [2] (chloroquine sensitive clone) came to 3.7 µg/mL. Moreover, the “Antimalarial P. falciparum W2 Clone IC50” value in test [3] (chloroquine resistant clone) is on record as 4.0 µg/mL.
Regarding `ON=Cc1cccc[n+]1Cc1ccc(Br)s1.[Cl-]` [Compound 21], in the test on Staphylococcus aureus, the “IC50 Antibacterial S. aureus” value was 15.3 µg/mL and 15.27 µg/mL; the “IC50 against S. aureus and methicillin resistant S. aureus” value was 12.2 to 17.7 µg/mL. Further, the “IC50 Antibacterial MRS” value in [5] is 14.2 µg/mL and 14.19 µg/mL. The “IC50 Antifungal C. glabrata” value with C. glabrata is given as >20 µg/mL. Moreover, in test [1], the “Antileishmanial L. donovani IC50” value worked out at 19 µg/mL and the “Antileishmanial L. donovani IC90” value is 40 µg/mL. Also, in test [6], the “Activity against all other test organisms” value was “inactive”.
Turning to `ON=Cc1cccc[n+]1Cc1csc2ccccc12.[Cl-]` [Compound 24, 1-(Benzothiophene-3-yl)-methyl-2-hydroxyiminomethylpyridinium chloride], in the test on Staphylococcus aureus, the “IC50 Antibacterial S. aureus” value is 12.2 µg/mL and 12.23 µg/mL; the “IC50 against S. aureus and methicillin resistant S. aureus” value lay within 12.2 to 17.7 µg/mL. In addition, in the test with Staphylococcus aureus (setting [7]), the “MIC Antibacterial S. aureus” value is recorded as 20 µg/mL. Further, in test [5], the “IC50 Antibacterial MRS” value was 17.7 µg/mL and 17.72 µg/mL. Further, in [5] (setting [7]), the “MIC Antibacterial MRS” value is recorded as 20 µg/mL. Also, the “IC50 Antibacterial M. intracellulare” value in test [4] (50% inhibition of bacterial growth) was >20 µg/mL. For the same molecule, in [1], the “Antileishmanial L. donovani IC50” value is recorded as 18 µg/mL and the “Antileishmanial L. donovani IC90” value stood at 40 µg/mL. The “Activity against all other test organisms” value in [6] is “inactive”.
As to `O/N=C/c1cc[n+](COC[n+]2ccc(/C=N/O)cc2)cc1` [Compound 37, obidoxime, reference compound], in [6], the “Antimicrobial or antiprotozoal activity (overall)” value is “completely devoid of any antimicrobial or antiprotozoal activities”.
Same read-out and setting: then `ON=Cc1cc[n+](CCC[n+]2ccc(/C=N/O)cc2)cc1` [Compound 42, trimedoxime, reference compound], with “completely devoid of any antimicrobial or antiprotozoal activities”.
For the molecule `N=C(N)c1ccc(OCCCCCOc2ccc(C(=N)N)cc2)cc1` [Pentamidine, reference compound], in [1], the 50% inhibitory concentration (IC50) stood at 1.2 µg/mL (≈ 3.52 µM) and the 90% effect concentration (IC90) was 5 µg/mL (≈ 14.7 µM).
